According to paper PMC5881017, “Mechanisms of BK Channel Activation by Docosahexaenoic Acid in Rat Coronary Arterial Smooth Muscle Cells” (Frontiers in Pharmacology, 2018):

Biological target: T1, large-conductance calcium-activated potassium (BK) channel (Rattus norvegicus, UniProt Q62976)
T1 construct: gene Kcnma1; native BK channels in freshly isolated rat coronary arterial smooth muscle cells (inside-out patches)
Test: inside-out single-channel patch clamp (open probability at +[…] mV)
Assay type: cell-based

T1 sequence (Q62976 whole entry): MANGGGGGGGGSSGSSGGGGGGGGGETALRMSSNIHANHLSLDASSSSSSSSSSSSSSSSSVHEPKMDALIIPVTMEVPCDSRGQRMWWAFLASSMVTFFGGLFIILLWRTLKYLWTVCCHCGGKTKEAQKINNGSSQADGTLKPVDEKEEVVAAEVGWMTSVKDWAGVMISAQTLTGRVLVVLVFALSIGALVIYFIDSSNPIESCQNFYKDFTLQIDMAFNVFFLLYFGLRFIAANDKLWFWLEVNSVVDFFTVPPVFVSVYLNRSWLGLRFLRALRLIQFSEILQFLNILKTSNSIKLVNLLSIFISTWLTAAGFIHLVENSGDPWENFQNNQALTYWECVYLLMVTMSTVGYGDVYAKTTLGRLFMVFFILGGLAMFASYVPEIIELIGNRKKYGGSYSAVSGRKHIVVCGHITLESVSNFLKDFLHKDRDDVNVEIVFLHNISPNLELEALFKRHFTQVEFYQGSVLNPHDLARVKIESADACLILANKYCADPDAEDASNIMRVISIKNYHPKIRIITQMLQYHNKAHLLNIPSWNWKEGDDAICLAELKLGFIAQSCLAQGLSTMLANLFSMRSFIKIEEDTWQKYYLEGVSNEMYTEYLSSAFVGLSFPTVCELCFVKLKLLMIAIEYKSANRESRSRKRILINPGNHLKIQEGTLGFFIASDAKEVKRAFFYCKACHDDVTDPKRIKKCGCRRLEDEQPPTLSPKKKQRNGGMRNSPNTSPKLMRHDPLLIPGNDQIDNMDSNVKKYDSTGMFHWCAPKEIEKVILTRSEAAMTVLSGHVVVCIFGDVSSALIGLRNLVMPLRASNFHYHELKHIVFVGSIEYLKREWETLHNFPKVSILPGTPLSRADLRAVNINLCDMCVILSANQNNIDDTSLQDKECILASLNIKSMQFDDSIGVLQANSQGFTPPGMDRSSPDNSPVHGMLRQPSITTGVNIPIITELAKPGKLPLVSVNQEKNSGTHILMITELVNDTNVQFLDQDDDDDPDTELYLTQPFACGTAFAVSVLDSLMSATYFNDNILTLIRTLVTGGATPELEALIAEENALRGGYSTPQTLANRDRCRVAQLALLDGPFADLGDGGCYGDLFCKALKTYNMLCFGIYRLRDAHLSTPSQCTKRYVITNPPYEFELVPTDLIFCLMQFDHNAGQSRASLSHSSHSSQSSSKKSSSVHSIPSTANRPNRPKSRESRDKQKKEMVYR

- EC50: 3.37 ± 0.1 µM
Compound: CC/C=C\C/C=C\C/C=C\C/C=C\C/C=C\C/C=C\CCC(=O)O [Docosahexaenoic acid]
